In the assay the target is SARS-CoV-2 3CLpro (Severe acute respiratory syndrome coronavirus 2, UniProt P0DTD1). Nature of the assay: biochemical. The class given is biochemical. Details: Replicate_1 / Replicate_2 / mean / mean (LOPAC_screen_w_protease): unit not given here. Particulars: for mean (LOPAC screen with protease) / Replicate_1 (LOPAC screen with protease) / Replicate_2 (LOPAC screen with protease): primary screen at 5 µM; for inhibition at 5 µM: 4 h.

The mark [1] stands for this setting: sheet LOPAC_screen_w_protease, mean of two replicates.
[2] abbreviates: sheet LOPAC_screen_w_protease, replicate 1.
[3] abbreviates: sheet LOPAC_screen_w_protease, replicate 2.
Setting [4] is: sheet LOPAC_screen_w_protease, primary screen with protease, 5 µM, mean of two replicates.
Where [5] appears, read: sheet LOPAC_screen_w_protease, primary screen with protease, 5 µM, replicate 1.
Setting [6] is: sheet LOPAC_screen_w_protease, primary screen with protease, 5 µM, replicate 2.
Where [7] appears, read: sheet LOPAC_screen_w_protease, LOPAC1280 primary screen at 5 µM, with protease, mean of the two replicates, read-out: mean.
Where [8] appears, read: sheet LOPAC_screen_w_protease, LOPAC1280 primary screen at 5 µM, with protease, replicate 1, read-out: Replicate_1.
Setting [9] is: sheet LOPAC_screen_w_protease, LOPAC1280 primary screen at 5 µM, with protease, replicate 2, read-out: Replicate_2.
Where [10] appears, read: sheet LOPAC_screen_w_protease, LOPAC1280 primary screen at 5 µM, with protease, mean of the two replicates.
The mark [11] stands for this setting: sheet LOPAC_screen_w_protease, LOPAC1280 primary screen at 5 µM, with protease, replicate 1.
The mark [12] stands for this setting: sheet LOPAC_screen_w_protease, LOPAC1280 primary screen at 5 µM, with protease, replicate 2.
The mark [13] stands for this setting: sheet LOPAC_screen_w_protease, LOPAC1280 at 5 µM, mean of two replicates.
The mark [14] stands for this setting: sheet LOPAC_screen_w_protease, LOPAC1280 at 5 µM, replicate 1.
Setting [15] is: sheet LOPAC_screen_w_protease, LOPAC1280 at 5 µM, replicate 2.
Where [16] appears, read: LOPAC1280 primary screen with protease, 5 µM compound, replicate 1, read-out: Replicate_1 (LOPAC_screen_w_protease).
The mark [17] stands for this setting: LOPAC1280 primary screen with protease, 5 µM compound, replicate 2, read-out: Replicate_2 (LOPAC_screen_w_protease).
The mark [18] stands for this setting: LOPAC1280 primary screen with protease, 5 µM compound, mean of two replicates.
Where [19] appears, read: LOPAC1280 primary screen with protease, 5 µM compound, replicate 1.
Where [20] appears, read: LOPAC1280 primary screen with protease, 5 µM compound, replicate 2.

Where two headings read alike, the source gives them in different places.

As for `Br.CN=c1nc(-c2ccccc2)n(-c2ccccc2)s1` [SCH-202676 hydrobromide], the “mean (LOPAC screen with protease)” value under setting [1] is 100.647. Under setting [2], the “Replicate_1 (LOPAC screen with protease)” value worked out at 100.647. Further, under setting [3], the “Replicate_2 (LOPAC screen with protease)” value was determined as 100.647.

Take `CCN(CC)CCOC(=O)c1cc(Cl)c(N)cc1OC.Cl` [SDZ-205,557 hydrochloride]: where the note is “sheet LOPAC_screen_w_protease, primary screen with protease, compound at 5 µM, mean of two replicates”, the mean was 2.714. Where the note is “sheet LOPAC_screen_w_protease, primary screen with protease, compound at 5 µM, replicate 1”, this compound showed a Replicate_1 of 3.796. Also, for the setting “sheet LOPAC_screen_w_protease, primary screen with protease, compound at 5 µM, replicate 2”, the Replicate_2 stood at 1.633.

`Cc1ccc(O)c(N=Nc2ccccc2)n1` [SIB 1757]: the mean (sheet LOPAC_screen_w_protease, primary screen with protease, mean of two replicates) came to 2.268. The Replicate_1 (sheet LOPAC_screen_w_protease, primary screen with protease, replicate 1) is on record as 3.235. Besides, the Replicate_2 (sheet LOPAC_screen_w_protease, primary screen with protease, replicate 2) worked out at 1.301.

`Cc1cccc(/C=C/c2ccccc2)n1` [SIB 1893] had a mean under setting [4] of 0.4194. Also, the Replicate_1 under setting [5] is given as 2.242. This compound also yielded a Replicate_2 under setting [6] of -1.403.

Consider `Br.CN1CCc2cc(O)c(O)cc2C(c2ccccc2)C1` (stereo not drawn) [SKF 75670 hydrobromide], for which the “mean (LOPAC screen with protease)” value under setting [1] turned out to be 25.5455. Besides, under setting [2], the “Replicate_1 (LOPAC screen with protease)” value was 25.015. Also, the “Replicate_2 (LOPAC screen with protease)” value under setting [3] stood at 26.0759.

Consider `Br.CN1CCc2c(cc(O)c(O)c2Cl)C(c2cccc(Cl)c2)C1` (stereo not drawn) [SKF 83565 hydrobromide], for which the “mean (LOPAC screen with protease)” value under setting [1] was 22.1474. In addition, the “Replicate_1 (LOPAC screen with protease)” value under setting [2] was found to be 23.5852. For the same compound, the “Replicate_2 (LOPAC screen with protease)” value under setting [3] was 20.7095.

`Br.Cc1cccc(C2CN(C)CCc3c2cc(O)c(O)c3Cl)c1` (stereo not drawn) [SKF 83959 hydrobromide]: the “mean (LOPAC screen with protease)” value under setting [1] was determined as 8.7281. Moreover, the “Replicate_1 (LOPAC screen with protease)” value under setting [2] was 9.112. In addition, the “Replicate_2 (LOPAC screen with protease)” value under setting [3] was determined as 8.344.

As for `CN1CCc2cccc(Cl)c2CC1` [SKF 86466], the inhibition at 5 µM by setting is: under setting [7], 0.452%; under setting [8], 0.136%; under setting [9], 0.768%.

In the case of `Cl.O=C(O)C1CCCN(CCC=C(c2ccccc2)c2ccccc2)C1` (stereo not drawn) [SKF 89976A hydrochloride], the mean under setting [10] was found to be 0.532. Moreover, the Replicate_1 under setting [11] was 1.548. Under setting [12], this compound displayed a Replicate_2 of -0.4841.

As for `CN(C)CCCCSC(=N)N.Cl.Cl` [SKF 91488 dihydrochloride], under setting [1], the “mean (LOPAC screen with protease)” value stood at 12.1431. The “Replicate_1 (LOPAC screen with protease)” value under setting [2] worked out at 13.4504. In addition, the “Replicate_2 (LOPAC screen with protease)” value under setting [3] is reported as 10.8358.

Take `CN/C(=N\c1ccc(C2=NNC(=O)CC2C)cc1)NC#N` (stereo not drawn) [SKF 94836]: the inhibition at 5 µM by setting is: under setting [7], 0.836%; under setting [8], 1.39%; under setting [9], 0.284%.

Compound `O=C(O)/C=C\C(=O)O.O=C(O)/C=C\C(=O)O.c1cc(CN2CCCCC2)cc(OCCCNc2nc3ccccc3s2)c1` [SKF 95282 dimaleate] showed a mean under setting [13] of 0.9471. The compound also returned a Replicate_1 under setting [14] of 0.9833. For the same compound, under setting [15], the Replicate_2 is given as 0.911.

On to `COc1ccc(CCCOC(Cn2ccnc2)c2ccc(OC)cc2)cc1` (stereo not drawn) [SKF 96365], for which the inhibition at 5 µM reads like this: under setting [16], 1.52%; under setting [17], 2.09%. For the same compound, the “mean (LOPAC_screen_w_protease)” value (LOPAC1280 primary screen with protease, 5 µM compound, mean of the two replicates) stood at 1.802.

For `CP(=O)(O)CCCN.Cl` [SKF 97541 hydrochloride], the “mean (LOPAC_screen_w_protease)” value under setting [18] came out at 1.5203. The “Replicate_1 (LOPAC_screen_w_protease)” value under setting [19] is 0.8621. Further, under setting [20], the “Replicate_2 (LOPAC_screen_w_protease)” value worked out at 2.1785.

Under “sheet LOPAC_screen_w_protease, primary screen of LOPAC1280 at 5 µM with protease, mean of the two replicates”, `CCCC(C(=O)OCCN(CC)CC)(c1ccccc1)c1ccccc1.Cl` [SKF-525A hydrochloride] showed a mean of 3.89. This compound also registered a Replicate_1 (sheet LOPAC_screen_w_protease, primary screen of LOPAC1280 at 5 µM with protease, replicate 1) of 3.162. In addition, the Replicate_2 (sheet LOPAC_screen_w_protease, primary screen of LOPAC1280 at 5 µM with protease, replicate 2) amounted to 4.618.

Regarding `C=CCN1C[C@H](C)N([C@H](c2ccc(C(=O)N(CC)CC)cc2)c2cccc(OC)c2)C[C@H]1C` [SNC80], the Replicate_1 is reported as -0.408, the Replicate_2 amounted to 1.648 and the mean is recorded as 0.6198.

For `Oc1c2ccccc2c2c3c(cccc13)N=N2` [SP600125], the inhibition at 5 µM by setting is: (sheet LOPAC_screen_w_protease, LOPAC1280 primary screen at 5 µM, with protease, mean of two replicates, read-out: mean) -1.9%; under setting [8], 0.641%; under setting [9], -4.45%.

In turn, `Nc1ncnc2c1ncn2C1CCCO1` (stereo not drawn) [SQ 22536] returned a mean (sheet LOPAC_screen_w_protease, LOPAC1280 primary screen at 5 µM, with protease, mean of two replicates) of -1.0181. The compound also had a Replicate_1 under setting [11] of 0.976. Also, the Replicate_2 under setting [12] was -3.012.

Turning to `O=C(O)c1ccccc1Nc1cccc(OCc2ccc3ccccc3n2)c1` [SR 2640], the inhibition at 5 µM by setting is: under setting [16], 1.95%; under setting [17], 1.04%. Besides, under setting [18], the “mean (LOPAC_screen_w_protease)” value was 1.4964.

`Cl.NC1CCN(c2cccc(Cl)n2)CC1` [SR 57227A]: the mean under setting [13] is 1.074. The compound also gave a Replicate_1 under setting [14] of 1.181. The Replicate_2 under setting [15] is recorded as 0.9673.

In the case of `CCc1ccccc1OC[C@@H](O)CN[C@H]1CCCc2ccccc21.O=C(O)C(=O)O` [SR 59230A oxalate], the mean under setting [4] is reported as -0.0002221. Also, the Replicate_1 under setting [5] came out at 1.088. Moreover, the Replicate_2 under setting [6] is -1.089.

In the case of `Br.COc1ccc(-c2ccc(=N)n(CCCC(=O)O)n2)cc1` [SR-95531], the “Replicate_1 (LOPAC_screen_w_protease)” value was determined as 2.0939, the “Replicate_2 (LOPAC_screen_w_protease)” value stood at 0.7216 and the “mean (LOPAC_screen_w_protease)” value came to 1.408.

Compound `CN(C)c1ccc(/C=C2\C(=O)Nc3ccccc32)cc1` [SU 4312] yielded a mean under setting [4] of 0.09243. Also, the Replicate_1 under setting [5] is 0.4934. In addition, the Replicate_2 under setting [6] is -0.3085.

Consider `CN(C)S(=O)(=O)c1ccc2c(c1)/C(=C/c1cc3c([nH]1)CCCC3)C(=O)N2` [SU 6656], for which the inhibition at 5 µM was 4.85% (sheet LOPAC_screen_w_protease, LOPAC1280 primary screen with protease, 5 µM compound, mean of the two replicates, read-out: mean); 3.58% (sheet LOPAC_screen_w_protease, LOPAC1280 primary screen with protease, 5 µM compound, replicate 1, read-out: Replicate_1); 6.11% (sheet LOPAC_screen_w_protease, LOPAC1280 primary screen with protease, 5 µM compound, replicate 2, read-out: Replicate_2).

Regarding `CC(C)(C)NCC(O)c1ccc(O)c(CO)c1` (stereo not drawn) [Salbutamol], the inhibition at 5 µM is 1.09% (sheet LOPAC_screen_w_protease, LOPAC1280 at 5 µM, mean of two replicates, read-out: mean); 1.09% (sheet LOPAC_screen_w_protease, LOPAC1280 at 5 µM, replicate 1, read-out: Replicate_1); 1.1% (sheet LOPAC_screen_w_protease, LOPAC1280 at 5 µM, replicate 2, read-out: Replicate_2).

With `CCCCCCCCCC[Si](C)(C)CCC(=O)NC(Cc1ccc(C)cc1)c1ccccc1` (stereo not drawn) [Sandoz 58-035], under setting [10], the mean was 0.7639. For the same compound, the Replicate_1 under setting [11] is on record as 1.25. This compound also gave a Replicate_2 under setting [12] of 0.2774.

Consider `C[n+]1cc2c3c(ccc2c2ccc4cc5c(cc4c21)OCO5)OCO3` [Sanguinarine chloride], for which the inhibition at 5 µM (read-out: Replicate_1 (LOPAC screen with protease)) is 46.2%, the inhibition at 5 µM (read-out: Replicate_2 (LOPAC screen with protease)) amounted to 43.3% and the inhibition at 5 µM (read-out: mean (LOPAC screen with protease)) turned out to be 44.8%.

As to `C[Se]C[C@H](N)C(=O)O.Cl` [Se-(methyl)selenocysteine hydrochloride], the “mean (LOPAC screen with protease)” value under setting [1] is recorded as 12.3582. In addition, the “Replicate_1 (LOPAC screen with protease)” value under setting [2] was 13.6627. Moreover, the “Replicate_2 (LOPAC screen with protease)” value under setting [3] is listed as 11.0537.

Turning to `CC(C)[C@@H]1NC(=O)[C@H](CCCCN)NC(=O)[C@@H](Cc2c[nH]c3ccccc23)NC(=O)[C@H](Cc2ccc(O)cc2)NC(=O)[C@H](C)N(C)C(=O)[C@H](Cc2ccccc2)NC1=O` [Seglitide], the inhibition at 5 µM runs as follows: under setting [16], 3.58%; under setting [17], -0.291%. The “mean (LOPAC_screen_w_protease)” value under setting [18] was 1.643.

For `Cl.NNC(N)=O` [Semicarbazide hydrochloride], the “mean (LOPAC_screen_w_protease)” value under setting [18] turned out to be 1.574. Besides, the “Replicate_1 (LOPAC_screen_w_protease)” value under setting [19] is given as 1.447. For the same compound, the “Replicate_2 (LOPAC_screen_w_protease)” value under setting [20] amounted to 1.701.

On to `C[C@H](O)C(=O)C1=Nc2c(nc(N)[nH]c2=O)NC1` [Sepiapterin], for which the inhibition at 5 µM by setting is: (sheet LOPAC_screen_w_protease, primary screen with protease, mean of two replicates, read-out: mean) 2.57%; (sheet LOPAC_screen_w_protease, primary screen with protease, replicate 1, read-out: Replicate_1) 2.59%; (sheet LOPAC_screen_w_protease, primary screen with protease, replicate 2, read-out: Replicate_2) 2.55%.

These data come from article PMC7587356, “High-Throughput Screening for Inhibitors of the SARS-CoV-2 Protease Using a FRET-Biosensor” (Molecules, 2020).
